The text below walks through data of publication PMC12520770, “Synthesis of a novel coumarin via the Mannich reaction: in vitro and in silico evaluation of anti-cancer, antimicrobial and antioxidant activities” (Royal Society Open Science, 2025).

In brackets after ≈: the same amount, converted by molar mass.

A word on the IC50: it is the concentration that gives 50% inhibition. Usually MIC stands for the least concentration at which growth counts as inhibited. A higher MIC goes with a need for much substance.

For the first experiment, the system named is human breast cancer cell line MCF-7. Briefly: SRB cytotoxicity assay, MCF-7. To be noted: MCF7, MCF-7, SRB assay, 48 h. It counts as cell-based. On the procedure:
(§1) Human lung cancer cell line NCI-H460 (HTB-177), human breast cancer cell line MCF-7 (HTB-2), human cervical cancer cells HeLa (CCL-2), human liver cancer cell line HepG2 (HB-8065) and normal kidney epithelial cell line (LLCPK1) were purchased from the American Type Culture Collection (Manassas, Rockville). Cells were cultured at 37°C and 5% CO2 in Eagle’s minimal essential medium supplemented with 10% (v/v) FBS (Sigma), 2 mM L-glutamine (Sigma), 20 mM HEPES (Sigma), 0.025 μg ml^−1 amphotericin B (Sigma), 100 IU ml^−1 penicillin G (Sigma) and 100 μg ml^−1 streptomycin (Sigma). Cells used in this study were between passages 4 and 20.
(§2) The experiment was conducted as previously outlined, with certain variations. Cells were seeded at a density of 10 000 cells per well (MCF-7, Hep G2, HeLa) or 7500 cells per well (NCI-H460) in 96-well plates, grown for 24 h, and subsequently treated with compounds at varying doses for 48 h. Treated cells were fixed with cold 50% (w/v) trichloroacetic acid (Merck) solution for 1−3 h, subsequently washed and stained with 0.2% (w/v) SRB (Sigma) for 20 min. Following five washes with 1% acetic acid (Merck), the protein-bound dye was solubilized in a 10 mM Tris base solution (Promega). Optical density values were measured using a 96-well microtiter plate reader (Synergy HT, Biotek Instruments) at wavelengths of 492 and 620 nm. The growth inhibition percentage (Inh %) was determined using the formula: Inh % = (1 − [ODt/ODc]) × 100, where ODt and ODc represent the optical density values of the test and control samples, respectively. Camptothecin served as the positive control.
As to `O=C(O)c1ccc(NCc2c(O)c3ccccc3oc2=O)cc1` [2c, 4-{[(4-hydroxy-2-oxo-2H-chromen-3-yl)methyl]amino}benzoic acid], the half-maximal inhibitory concentration (IC50) was found to be 61.4 µM.

`O=c1oc2ccccc2c(O)c1Cn1ccnc1` [2e, 3-[(1H-imidazol-1-yl)methyl]-4-hydroxy-2H-chromen-2-one]: the IC50 worked out at 30.4 µM.

For the compound `O=c1oc2ccccc2c(O)c1CN1CCOCC1` [2g, 4-Hydroxy-3-(morpholinomethyl)-2H-chromen-2-one], the IC50 amounted to 42.7 µM.

Turning to `CCCNCc1c(O)c2ccccc2oc1=O` [2h, 4-Hydroxy-3-[(propylamino)methyl]-2H-chromen-2-one], the IC50 came out at 40.1 µM.

On to `CC[C@@]1(O)C(=O)OCc2c1cc1n(c2=O)Cc2cc3ccccc3nc2-1` [camptothecin, reference compound], for which the 50% inhibitory concentration (IC50) was 3.76 ± 0.15 µM.

Take `CNCc1c(O)c2ccccc2oc1=O` [compound 2a, 4-Hydroxy-3-[(methylamino)methyl]-2H-chromen-2-one]: the half-inhibitory concentration (IC50) is 52 µM.

On to `CC(C)NCc1c(O)c2ccccc2oc1=O` [compound 2b, 4-Hydroxy-3-[(isopropylamino)methyl]-2H-chromen-2-one], for which the concentration for half-maximal inhibition (IC50) turned out to be 35.4 µM.

Regarding `N#Cc1ccc(NCc2c(O)c3ccccc3oc2=O)cc1` [compound 2d, 4-{[(4-Hydroxy-2-oxo-2H−chromen-3-yl)methyl]amino}benzonitrile], the IC50 is 2.54 ± 0.12 µM.

Turning to `O=c1oc2ccccc2c(O)c1CNC1CCCC1` [compound 2f, 3-[(Cyclopentylamino)methyl]-4-hydroxy-2H-chromen-2-one], the half-inhibitory concentration (IC50) was found to be 54.2 µM.

Consider `O=c1oc2ccccc2c(O)c1CNc1ccc(S(=O)(=O)O)cc1` [compound 2i, 4-{[(4-Hydroxy-2-oxo−2H-chromen-3-yl)methyl]amino}benzenesulfonic acid], for which the IC50 was 85.2 µM.

In the case of `O=c1oc2ccccc2c(O)c1CNc1ccccc1` [compound 2j, 4-Hydroxy-3-[(phenylamino)methyl]-2H-chromen-2-one], the IC50 amounted to 95.5 µM.

Another experiment relates to human cervical cancer cells HeLa. Briefly: SRB cytotoxicity assay, HeLa. Format: cell-based. To be noted: 48 h. On the procedure: as §1, §2
(In SRB staining, fixed cells bind dye roughly in proportion to their protein.)
For the compound `O=C(O)c1ccc(NCc2c(O)c3ccccc3oc2=O)cc1` [2c, 4-{[(4-hydroxy-2-oxo-2H-chromen-3-yl)methyl]amino}benzoic acid], the concentration for half-maximal inhibition (IC50) was found to be 54.9 µM.

`O=c1oc2ccccc2c(O)c1Cn1ccnc1` [2e, 3-[(1H-imidazol-1-yl)methyl]-4-hydroxy-2H-chromen-2-one]: the 50% inhibitory concentration (IC50) amounted to 34.2 µM.

Consider `O=c1oc2ccccc2c(O)c1CN1CCOCC1` [2g, 4-Hydroxy-3-(morpholinomethyl)-2H-chromen-2-one], for which the 50% inhibitory concentration (IC50) is 31.5 µM.

As for `CCCNCc1c(O)c2ccccc2oc1=O` [2h, 4-Hydroxy-3-[(propylamino)methyl]-2H-chromen-2-one], the IC50 came to 73.2 µM.

Turning to `CC[C@@]1(O)C(=O)OCc2c1cc1n(c2=O)Cc2cc3ccccc3nc2-1` [camptothecin, reference compound], the IC50 stood at 2.38 ± 0.102 µM.

For the compound `CNCc1c(O)c2ccccc2oc1=O` [compound 2a, 4-Hydroxy-3-[(methylamino)methyl]-2H-chromen-2-one], the concentration for half-maximal inhibition (IC50) was found to be 39.3 µM.

For the compound `CC(C)NCc1c(O)c2ccccc2oc1=O` [compound 2b, 4-Hydroxy-3-[(isopropylamino)methyl]-2H-chromen-2-one], the 50% inhibitory concentration (IC50) was 5.23 ± 0.12 µM.

Turning to `N#Cc1ccc(NCc2c(O)c3ccccc3oc2=O)cc1` [compound 2d, 4-{[(4-Hydroxy-2-oxo-2H−chromen-3-yl)methyl]amino}benzonitrile], the IC50 was determined as 34.1 µM.

As to `O=c1oc2ccccc2c(O)c1CNC1CCCC1` [compound 2f, 3-[(Cyclopentylamino)methyl]-4-hydroxy-2H-chromen-2-one], the IC50 was 57.3 µM.

`O=c1oc2ccccc2c(O)c1CNc1ccc(S(=O)(=O)O)cc1` [compound 2i, 4-{[(4-Hydroxy-2-oxo−2H-chromen-3-yl)methyl]amino}benzenesulfonic acid]: the IC50 turned out to be 80.2 µM.

As for `O=c1oc2ccccc2c(O)c1CNc1ccccc1` [compound 2j, 4-Hydroxy-3-[(phenylamino)methyl]-2H-chromen-2-one], the IC50 was 84.7 µM.

The subject of the next experiment is human liver cancer cell line HepG2. Briefly: SRB cytotoxicity assay, HepG2. Format: cell-based. To be noted: 48 h. The method, then: as §1, §2
Consider `O=C(O)c1ccc(NCc2c(O)c3ccccc3oc2=O)cc1` [2c, 4-{[(4-hydroxy-2-oxo-2H-chromen-3-yl)methyl]amino}benzoic acid], for which the IC50 was 56.5 µM.

On to `O=c1oc2ccccc2c(O)c1Cn1ccnc1` [2e, 3-[(1H-imidazol-1-yl)methyl]-4-hydroxy-2H-chromen-2-one], for which the IC50 turned out to be 34.2 µM.

With `O=c1oc2ccccc2c(O)c1CN1CCOCC1` [2g, 4-Hydroxy-3-(morpholinomethyl)-2H-chromen-2-one], the IC50 stood at 50.2 µM.

On to `CCCNCc1c(O)c2ccccc2oc1=O` [2h, 4-Hydroxy-3-[(propylamino)methyl]-2H-chromen-2-one], for which the IC50 came out at 62.5 µM.

For `CC[C@@]1(O)C(=O)OCc2c1cc1n(c2=O)Cc2cc3ccccc3nc2-1` [camptothecin, reference compound], the half-maximal inhibitory concentration (IC50) worked out at 4.28 ± 0.201 µM.

For `CNCc1c(O)c2ccccc2oc1=O` [compound 2a, 4-Hydroxy-3-[(methylamino)methyl]-2H-chromen-2-one], the concentration for half-maximal inhibition (IC50) stood at 8.57 ± 0.42 µM.

On to `CC(C)NCc1c(O)c2ccccc2oc1=O` [compound 2b, 4-Hydroxy-3-[(isopropylamino)methyl]-2H-chromen-2-one], for which the half-maximal inhibitory concentration (IC50) amounted to 73.2 µM.

In the case of `N#Cc1ccc(NCc2c(O)c3ccccc3oc2=O)cc1` [compound 2d, 4-{[(4-Hydroxy-2-oxo-2H−chromen-3-yl)methyl]amino}benzonitrile], the IC50 is 70.2 µM.

`O=c1oc2ccccc2c(O)c1CNC1CCCC1` [compound 2f, 3-[(Cyclopentylamino)methyl]-4-hydroxy-2H-chromen-2-one]: the concentration for half-maximal inhibition (IC50) was 49.7 µM.

`O=c1oc2ccccc2c(O)c1CNc1ccc(S(=O)(=O)O)cc1` [compound 2i, 4-{[(4-Hydroxy-2-oxo−2H-chromen-3-yl)methyl]amino}benzenesulfonic acid]: the half-maximal inhibitory concentration (IC50) was found to be 75.2 µM.

For `O=c1oc2ccccc2c(O)c1CNc1ccccc1` [compound 2j, 4-Hydroxy-3-[(phenylamino)methyl]-2H-chromen-2-one], the half-inhibitory concentration (IC50) turned out to be 68.1 µM.

Another experiment has as its system normal kidney epithelial cell line (LLCPK1). Briefly: SRB cytotoxicity assay, normal cells LLCPK1. Format: cell-based. To be noted: Sus scrofa, LLC-PK1. The method, then: as §1, §2
Consider `CNCc1c(O)c2ccccc2oc1=O` [compound 2a, 4-Hydroxy-3-[(methylamino)methyl]-2H-chromen-2-one], for which the half-maximal inhibitory concentration (IC50) was 94.6 µM.

For the compound `CC(C)NCc1c(O)c2ccccc2oc1=O` [compound 2b, 4-Hydroxy-3-[(isopropylamino)methyl]-2H-chromen-2-one], the IC50 turned out to be 97.3 µM.

For the compound `N#Cc1ccc(NCc2c(O)c3ccccc3oc2=O)cc1` [compound 2d, 4-{[(4-Hydroxy-2-oxo-2H−chromen-3-yl)methyl]amino}benzonitrile], the IC50 stood at 94.8 µM.

The next experiment relates to Bacillus subtilis. Briefly: Broth microdilution MIC, B. subtilis.
Conditions: not given
Format: cell-based. On the procedure: The three bacteria—Escherichia coli (E. coli), methicillin-resistant Staphylococcus aureus (MRSA) and Bacillus subtilis (B. subtilis), and two fungi: Candida albicans (C. albicans) and Trichophyton mentagrophytes (T. mentagrophytes) were used in this study. The clinical isolates were obtained in 2019 from the Faculty of Biology and Biotechnology, University of Science, Vietnam National University.
All coumarin derivatives were evaluated for in vitro antibacterial and antifungal activities, and the minimum inhibitory concentration (MIC) was ascertained in µM using the broth microdilution method. The test organisms were cultivated and cultured for 48 h at 37°C. The 2-day-old bacterial cultures were emulsified in a small volume of Muller Hinton broth (MHB) and cultured at 37°C overnight to reach the logarithmic growth phase. The turbidity of each inoculum was subsequently corrected to McFarland standard no. 0.5 by the additional incorporation of MHB, resulting in an inoculum concentration of 1.5 × 10^8 CFU ml^−1. One hundred microlitres of MHB were dispensed into all wells of the 96-well microtiter plates, excluding the first column A. Subsequently, 200 µl of the working solution for each examined chemical was allocated to column A of each plate. […] The MIC was determined as the minimal concentration of substances that inhibited the colour change.
Background: In broth dilution the organism is exposed to a series of concentrations in liquid medium.
As for `CNCc1c(O)c2ccccc2oc1=O` [compound 2a, 4-Hydroxy-3-[(methylamino)methyl]-2H-chromen-2-one], inhibition of growth (MIC) required 25 µM (≈ 5.13 µg/mL).

As for `O=c1oc2ccccc2c(O)c1CNC1CCCC1` [compound 2f, 3-[(Cyclopentylamino)methyl]-4-hydroxy-2H-chromen-2-one], it took 75 µM (≈ 19.4 µg/mL) to inhibit growth (MIC).

System in the next experiment: not listed separately
Briefly: DPPH radical scavenging assay. It counts as biochemical. To be noted: read-out: SC50 (the source's name). The method, then: The 1,1-diphenyl−2-picrylhydrazyl (DPPH) assay is a technique employed to assess the antioxidant potential of a chemical by measuring its efficacy in scavenging free radicals. DPPH produces stable free radicals in methanol. Upon exposure to an antioxidant, DPPH experiences a colour transformation from purple to yellow, which is quantified using an ELISA reader at a wavelength of 517 nm. The experiment is performed in a 96-well plate, where a 150 µM DPPH solution in 80% methanol is combined with test samples at different concentrations. The DPPH radical scavenging activity percentage is computed using the formula SC% = 1 − [ODt/ODc] × 100 (%), where SC50 (radical scavenging concentration of 50%) is the sample concentration necessary to eliminate 50% of DPPH radicals, as ascertained from the standard calibration curve. Trolox serves as a positive control in the experiment.
(DPPH is a stable violet radical that fades when it is reduced.)
For `O=C(O)c1ccc(NCc2c(O)c3ccccc3oc2=O)cc1` [2c, 4-{[(4-hydroxy-2-oxo-2H-chromen-3-yl)methyl]amino}benzoic acid], the EC50 amounted to 59.7 µM.

With `O=c1oc2ccccc2c(O)c1Cn1ccnc1` [2e, 3-[(1H-imidazol-1-yl)methyl]-4-hydroxy-2H-chromen-2-one], the EC50 worked out at 80.9 µM.

For the compound `O=c1oc2ccccc2c(O)c1CN1CCOCC1` [2g, 4-Hydroxy-3-(morpholinomethyl)-2H-chromen-2-one], the EC50 came to 72.2 µM.

Regarding `CCCNCc1c(O)c2ccccc2oc1=O` [2h, 4-Hydroxy-3-[(propylamino)methyl]-2H-chromen-2-one], the EC50 worked out at 65.3 µM.

For the compound `Cc1c(C)c2c(c(C)c1O)CCC(C)(C(=O)O)O2` (stereo not shown) [Trolox, reference compound], the EC50 amounted to 6.12 ± 0.15 µM.

On to `CNCc1c(O)c2ccccc2oc1=O` [compound 2a, 4-Hydroxy-3-[(methylamino)methyl]-2H-chromen-2-one], for which the EC50 was 62.5 µM.

Consider `CC(C)NCc1c(O)c2ccccc2oc1=O` [compound 2b, 4-Hydroxy-3-[(isopropylamino)methyl]-2H-chromen-2-one], for which the EC50 came out at 31.3 µM.

As for `N#Cc1ccc(NCc2c(O)c3ccccc3oc2=O)cc1` [compound 2d, 4-{[(4-Hydroxy-2-oxo-2H−chromen-3-yl)methyl]amino}benzonitrile], the EC50 was determined as 35.8 µM.

Regarding `O=c1oc2ccccc2c(O)c1CNC1CCCC1` [compound 2f, 3-[(Cyclopentylamino)methyl]-4-hydroxy-2H-chromen-2-one], the EC50 amounted to 45.9 µM.

Consider `O=c1oc2ccccc2c(O)c1CNc1ccc(S(=O)(=O)O)cc1` [compound 2i, 4-{[(4-Hydroxy-2-oxo−2H-chromen-3-yl)methyl]amino}benzenesulfonic acid], for which the EC50 was 7.36 ± 0.18 µM.

Consider `O=c1oc2ccccc2c(O)c1CNc1ccccc1` [compound 2j, 4-Hydroxy-3-[(phenylamino)methyl]-2H-chromen-2-one], for which the EC50 was 53.3 µM.
